Structures can show the parent of a compound that is named as a salt.
Experiments:
[1] = system: tonic hindlimb extension in the MEST test in mice; test: Maximal electroshock seizure threshold (MEST) test; type: in vivo
Method: A sinusoidal current alternation was delivered via saline-soaked transcorneal electrodes. Before stimulation, an ocular anesthetic (1% tetracaine hydrochloride solution obtained from Sigma-Aldrich, St. Louis, MO, USA) was administered to each eye of the mice. During stimulation, the mice were manually immobilized in a hand for 3–5 s and immediately relocated to a transparent box for behavioral observation after the stimulation. Hindlimb tonic extension was taken as an end point. Two experimental approaches were employed: (1) the maximal electroshock seizure threshold (MEST) test at varied current intensities and (2) the maximal electroshock (MES) test at a fixed current intensity.
In the MEST test, seizure thresholds were determined using the “up-and-down” method described by Kimball et al.[28] […] Each mouse was stimulated only once.

[2] = Neurotoxicity, SH-SY5Y cell viability; type: cell-based; settings: human, neuroblastoma SH-SY5Y cells; 50 μM, 72 h
Method: (§1) A series of in vitro ADME-Tox tests were performed for SSR504734 in order to estimate its drugability. The ADME-Tox parameters including permeability, plasma protein binding, metabolic stability, neurotoxicity, and hepatotoxicity were carried out as described previously.[31],[32] The ability of SSR504734 to penetrate through the biological membrane by passive diffusion was estimated by the Gentest Precoated PAMPA Plate System (Corning, Tewksbury, MA) and expressed as the permeability coefficient (Pe). The protein binding analysis was performed by using the commercial TRANSIL^XL PPB test, which mimics in vitro physiological plasma conditions where human serum albumin (HAS) and alpha-1-acid glycoprotein AGP are present in a 24:1 ratio. The human metabolism of SSR504734 was studied using human liver microsomes (HLMs) provided by Sigma-Aldrich. The hepatotoxicity and neurotoxicity were estimated in cellular models with the use of hepatoma HepG2 and neuroblastoma SH-SY5Y cell lines to perform the preliminary safety tests. The cells were incubated with SSR504734 at the concentration range of 0.1–100 μM. 1 μM cytostatic drug doxorubicin (DX) was used as the reference.
(§2) Figure 8 Effect of cytostatic drug doxorubicin (DX) and SSR504734 on (A) hepatoma HepG2 and (B) neuroblastoma SH-SY5Y cell lines viability after 72 h of incubation at 37 °C, 5% CO2. Data are expressed as means ± SD. Statistical analysis: ****p < 0.0001 vs negative control −1% DMSO in growth media (one-way ANOVA, followed by Dunnett’s post hoc test).
(§3) Figure S8. The effect of cytostatic drug doxorubicin and SSR504734 on (A) hepatoma
(§4) HepG2 and (B) neuroblastoma SH-SY5Y cell line viability after 72 h of incubation at 37 °C,
(§5) 5% CO2. The IC50 values were calculated by GraphPad Prism 8.0.
(§6) (1 picture or pasted object on this page, not shown here)

[3] = system: neuroblastoma SH-SY5Y cells; test: Neurotoxicity, SH-SY5Y cell viability; type: cell-based
Method: as §1, §2, §3, §4, §5, §6

SMILES: O=C(NC(c1ccccc1)C1CCCCN1)c1cccc(C(F)(F)F)c1Cl [SSR504734, 2-chloro-N-[(S)-phenyl[(2S)-piperidin-2-yl]methyl]-3-trifluoromethyl benzamide monohydrochloride]
- fold increase of seizure threshold (CS50), time-course ([1]; 30 mg/kg i.p., 60 and 120 min after administration, vs control): ~1.3 fold
- effect on seizure threshold (CS50), time-course ([1]; 30 mg/kg i.p., at 30, 60, 120 and 240 min): significantly raised the seizure threshold
- fold increase in CC50 value ([1]; 14-day repeated treatment, 30 mg/kg i.p.): 1.2 fold
- effect on seizure threshold ([1]; 14-day repeated treatment, 3 and 10 mg/kg i.p.): no changes in seizure threshold
- effect on threshold for tonic hindlimb extension ([1]; acute, 10 mg/kg i.p., 60 min before test): ineffective
- fold increase of current intensity necessary to induce hindlimb tonus ([1]; acute, 30 mg/kg i.p., 60 min before test): 1.2 fold
- fold increase of current intensity necessary to induce hindlimb tonus ([1]; acute, 50 mg/kg i.p., 60 min before test): 1.6 fold
- viability at 72 h, 50 µM [2]: ~30%
- completely safe dose in the SH-SY5Y model ([3]; 72 h): 25 µM
- IC50 ([3]; Homo sapiens, SH-SY5Y, 72 h of incubation): 38.1 µM

Source: article PMC11926788, “Effect of SSR504734, a Selective Glycine Transporter Type 1 Inhibitor, on Seizure Thresholds, Neurotransmitter Levels, and Inflammatory Markers in Mice” (ACS Chemical Neuroscience, 2025)
